# pIC50: −log10 of the molar value. Like-named read-outs stand apart in the source and are kept apart here.
# Molecular target: neuronal NOS (Homo sapiens, UniProt P29475)
# Assay: Inhibition of NO synthase activity by conversion of [3H]arginine to [3H]citrulline (crude enzyme lysate)
# Type: biochemical
# Method: The ability of the compounds of the present invention to inhibit neuronal NOS may be determined using the procedure described by Bredt and Snyder in Proc. Natl. Acad. Sci. U.S.A., 87, 682-685 (1990).
# As indicated above, inhibition of NO synthase activity may be determined by conversion of [^3H]arginine to [^3H]citrulline as described by Bredt and Snyder in Proc. Natl. Acad. Sci. U.S.A., 87, 682-685 (1990), but with slight modification. Specifically, 10 uL of crude enzyme lysate and 10 uL of 350 nM [^3H]arginine are added to 100 uL of buffer containing 10 mM Hepes, 0.32 M sucrose, 0.75 mM NADPH, 0.1 mM EDTA, 0.63 mM CaCl2, 1 mM dithiothreitol, 30 nM calmodulin(CaM), 2 uM Flavin Adenin dinucleotie (FAD), 2 uM Flavin mononucleotide (FMN), 3 uM tetrahydrobiopterin (H4B) and trace bovine serum albumin in 96-well plate format. After incubation for 50 minutes at 30°C, assays are terminated by application to 75 uL BioRex-70 resin (H^+ form) and eluted with 90 uL of water. [^3H]citrulline may be quantified by liquid scintillation spectroscopy of the total flow-through.
# Sequence of neuronal NOS (P29475 whole entry): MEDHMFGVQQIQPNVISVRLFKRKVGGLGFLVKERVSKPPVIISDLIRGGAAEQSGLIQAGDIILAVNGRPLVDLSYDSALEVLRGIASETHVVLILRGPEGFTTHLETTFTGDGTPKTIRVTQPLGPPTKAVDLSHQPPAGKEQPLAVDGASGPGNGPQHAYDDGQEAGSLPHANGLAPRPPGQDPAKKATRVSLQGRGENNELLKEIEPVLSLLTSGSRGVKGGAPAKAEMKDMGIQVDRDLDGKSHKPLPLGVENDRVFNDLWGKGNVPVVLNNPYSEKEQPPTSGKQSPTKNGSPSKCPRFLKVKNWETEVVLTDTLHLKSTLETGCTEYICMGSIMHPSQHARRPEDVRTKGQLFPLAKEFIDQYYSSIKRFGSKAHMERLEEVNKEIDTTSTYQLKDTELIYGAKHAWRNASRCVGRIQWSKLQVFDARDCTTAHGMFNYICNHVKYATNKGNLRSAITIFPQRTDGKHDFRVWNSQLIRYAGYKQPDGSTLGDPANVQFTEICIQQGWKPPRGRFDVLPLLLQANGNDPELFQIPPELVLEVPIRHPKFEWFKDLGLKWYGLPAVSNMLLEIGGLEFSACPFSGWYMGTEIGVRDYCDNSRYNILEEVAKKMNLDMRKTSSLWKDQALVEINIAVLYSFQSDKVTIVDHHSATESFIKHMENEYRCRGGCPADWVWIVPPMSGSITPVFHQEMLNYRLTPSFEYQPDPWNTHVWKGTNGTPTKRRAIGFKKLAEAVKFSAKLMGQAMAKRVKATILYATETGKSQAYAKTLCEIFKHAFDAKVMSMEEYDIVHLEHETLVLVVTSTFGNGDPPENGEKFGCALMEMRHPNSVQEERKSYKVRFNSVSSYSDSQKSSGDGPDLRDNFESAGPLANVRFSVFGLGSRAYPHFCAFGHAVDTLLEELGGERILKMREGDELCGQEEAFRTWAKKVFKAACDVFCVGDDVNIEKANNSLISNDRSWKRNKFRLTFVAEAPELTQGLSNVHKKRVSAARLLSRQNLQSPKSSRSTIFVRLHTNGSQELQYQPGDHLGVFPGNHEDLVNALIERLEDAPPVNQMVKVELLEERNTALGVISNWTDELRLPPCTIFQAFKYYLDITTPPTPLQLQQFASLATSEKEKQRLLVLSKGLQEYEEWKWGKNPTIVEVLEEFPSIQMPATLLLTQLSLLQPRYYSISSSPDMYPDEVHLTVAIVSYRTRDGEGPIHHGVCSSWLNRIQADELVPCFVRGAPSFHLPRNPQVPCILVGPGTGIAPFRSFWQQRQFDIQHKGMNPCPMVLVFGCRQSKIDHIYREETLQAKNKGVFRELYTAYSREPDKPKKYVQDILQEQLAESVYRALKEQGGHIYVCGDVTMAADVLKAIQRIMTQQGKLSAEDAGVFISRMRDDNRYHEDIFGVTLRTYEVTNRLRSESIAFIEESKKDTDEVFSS
"pIC50 (crude enzyme lysate, [3H]arginine to [3H]citrulline, 50 minutes at 30°C, read-out: IC50 for inhibition of neuronal NOS)",pIC50,SMILES
7.44,–,"CCc1cc(-c2cccc(N)n2)c(OC)cc1OC1CNC1 [Example 1, 6-[4-(3-azetidinoxy)-5-ethyl-2-methoxy-phenyl]-pyridin-2-ylamine]"
–,7.52,"CCc1cc(-c2cccc(N)n2)c(OC)cc1CNC [Example 3, 6-[4-(N-methylaminomethyl)-5-ethyl-2-methoxy-phenyl]-pyridin-2-ylamine]"
